This passage reports Activity results from ChEMBL document CHEMBL1134959, “Synthesis and testing of 2alpha-modified 1alpha,25-dihydroxyvitamin D(3) analogues with a double side chain: marked cell differentiation activity” (2002).

One assay relates to HL-60. The assay can be described thus: Compound was evaluated for its relative cell differentiation of human promyelocytic leukemia cells (HL-60). It counts as functional.
For assay [1], the target named is T1, Vitamin D3 receptor (Bos taurus) (UniProt Q28037).
T1 sequence (whole entry): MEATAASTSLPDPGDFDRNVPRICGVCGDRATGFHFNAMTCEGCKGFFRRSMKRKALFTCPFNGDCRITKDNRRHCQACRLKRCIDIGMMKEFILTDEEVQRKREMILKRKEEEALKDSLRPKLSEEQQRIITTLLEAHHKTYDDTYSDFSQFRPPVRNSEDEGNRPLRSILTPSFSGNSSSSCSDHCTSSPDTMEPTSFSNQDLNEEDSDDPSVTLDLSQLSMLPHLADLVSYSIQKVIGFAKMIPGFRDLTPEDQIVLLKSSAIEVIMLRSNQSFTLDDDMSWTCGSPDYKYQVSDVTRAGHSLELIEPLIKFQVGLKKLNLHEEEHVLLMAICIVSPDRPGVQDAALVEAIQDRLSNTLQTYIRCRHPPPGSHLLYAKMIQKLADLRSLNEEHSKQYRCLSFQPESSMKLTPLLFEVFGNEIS
The assay can be described thus: Affinity for bovine thymus vitamin D receptor.

On to `C=C1/C(=C\C=C2/CCC[C@@]3(C)C2CC[C@@H]3C(CCCC(C)(C)O)CCCC(C)(C)O)C[C@@H](O)[C@H](C)[C@@H]1O` (stereo not given in full), for which the Activity in the assay on HL-60 amounted to 3840; in assay [1], 53.
For `C=C1/C(=C\C=C2/CCC[C@@]3(C)C2CC[C@@H]3C(CCCC(C)(C)O)CCCC(C)(C)O)C[C@@H](O)[C@H](CCCO)[C@@H]1O` (stereo not given in full), in that order: 1280 and 57.
As for `C=C1/C(=C\C=C2/CCC[C@@]3(C)C2CC[C@@H]3C(CCCC(C)(C)O)CCCC(C)(C)O)C[C@@H](O)[C@H](OCCCO)[C@@H]1O` (stereo not given in full), the Activity in the assay with HL-60 is 1920; in assay [1], 36.
On to `C=C1/C(=C\C=C2/CCC[C@]3(C)[C@@H]([C@H](C)CCCC(C)(C)O)CC[C@@H]23)C[C@@H](O)C[C@@H]1O` [CALCITRIOL], for which the Activity (in the assay with HL-60; in assay [1]) was 100 in each case.
In the case of `C=C1/C(=C\C=C2/CCC[C@@]3(C)C2CC[C@@H]3C(CCCC(C)(C)O)CCCC(C)(C)O)C[C@@H](O)C[C@@H]1O` (stereo not given in full), the Activity amounted to 1060 in the assay with HL-60 and 24 in assay [1].
